Experimental data: US20230391778A1, “INDOLIN-2-ONE OR PYRROLO -PYRIDIN -2 -ONE DERIVATIVES” (Hoffmann-La Roche Inc., priority 2014, published 2023)

biological target: T1, mouse ENT-1 transporter (Mus musculus, UniProt Q9JIM1); experiment: Measure of adenosine transport activity (ENT1 adenosine uptake inhibition); type: cell-based; details: stable cells expressing mouse ENT-1, [2,8-3H]-adenosine 6 nM, 20 min
T1 construct: expressed in transfected cells
T1 sequence (Q9JIM1 1-460): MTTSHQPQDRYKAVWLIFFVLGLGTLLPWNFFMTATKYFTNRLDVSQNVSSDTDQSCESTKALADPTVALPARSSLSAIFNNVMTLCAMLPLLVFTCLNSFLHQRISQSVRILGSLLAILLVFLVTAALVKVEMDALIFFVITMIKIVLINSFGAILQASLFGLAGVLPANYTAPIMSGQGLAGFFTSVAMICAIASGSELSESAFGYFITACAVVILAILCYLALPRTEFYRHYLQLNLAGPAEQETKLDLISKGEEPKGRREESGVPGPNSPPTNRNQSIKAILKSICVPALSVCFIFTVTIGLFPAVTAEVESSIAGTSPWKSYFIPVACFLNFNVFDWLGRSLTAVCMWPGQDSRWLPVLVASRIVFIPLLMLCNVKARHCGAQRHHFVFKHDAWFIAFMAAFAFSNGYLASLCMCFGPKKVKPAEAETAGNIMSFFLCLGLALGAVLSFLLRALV
Description: To measure adenosine transport activity of ENT-1 mammalian cells, stable cells expressing the mouse ENT-1 transporter were plated on day 1 in 96-well culture plates at the density of 60,000 cells/well, in complete DMEM/F12 medium supplemented with glutamax, 10% FBS and 10 μg/ml puromycin. On day 2, the medium was aspirated and the cells were washed twice with uptake buffer (10 mM Hepes-Tris, pH 7.4 containing 150 mM NaCl, 1 mM CaCl2), 2.5 mM KCl, 2.5 mM MgSO4, 10 mM D-glucose) (UB). For inhibition experiments, cells were then incubated at RT with various concentrations of compounds with 1% DMSO final. Non-specific uptake was defined in the presence of 10 μM S-(4-Nitrobenzyl)-6-thioinosine (NBTI, Sigma Cat #N2255).
The plates were then incubated for 20 min with gentle shaking and the reaction was stopped by aspiration of the mixture and washing (three times) with ice-cold UB. The cells were lysed by the addition of scintillation liquid, shaken 3 hours and the radioactivity in the cells was estimated using a microplates scintillation counter (TopCount NXT, Packard).

| Compound | IC50 [nM] |
| --- | --- |
| 3,3-dimethyl-6-(2-methylpyrimidin-5-yl)-1-(1-(2,2,2-trifluoroethyl)-1H-pyrazol-3-yl)indolin-2-one [Example 139] | 140 |
| 5-(3,3-dimethyl-1-(5-methylpyrimidin-2-yl)-2-oxoindolin-6-yl)-2-methylpyrimidine 1-oxide [Example 101] | 2400 |
| Cc1ncc(-c2ccc3c(c2)N(c2ccc(C)[n+]([O-])n2)C(=O)C3(C)C)cn1 (single isomer, unassigned) [Example 106, 3-(3,3-dimethyl-6-(2-methylpyrimidin-5-yl)-2-oxoindolin-1-yl)-6-methylpyridazine 1-oxide] | 481 |
| Cc1ncc(-c2ccc3c(c2)N(c2cccnc2)C(=O)C3(C)C)cn1 [Example 3, 3,3-Dimethyl-6-(2-methylpyrimidin-5-yl)-1-(pyridin-3-yl)indolin-2-one] | 1780 |
| Cc1ncc(-c2ccc3c(c2)N(c2cc(C)n(C)n2)C(=O)C3(C)C)cn1 [Example 5, 1-(1,5-Dimethyl-1H-pyrazol-3-yl)-3,3-dimethyl-6-(2-methylpyrimidin-5-yl)indolin-2-one] | 1050 |
| Cc1cc(N2C(=O)C(C)(C)c3ccc(-c4cnc(C)nc4)cc32)ccn1 [Example 6, 3,3-Dimethyl-1-(2-methylpyridin-4-yl)-6-(2-methylpyrimidin-5-yl)indolin-2-one] | 2130 |
| Cc1cc(N2C(=O)C(C)(C)c3ccc(-c4cnc(C)nc4)cc32)ncn1 [Example 7, 3,3-Dimethyl-1-(6-methylpyrimidin-4-yl)-6-(2-methylpyrimidin-5-yl)indolin-2-one] | 1540 |
| Cc1ncc(-c2ccc3c(c2)N(c2cncnc2)C(=O)C3(C)C)cn1 [Example 8, 3,3-Dimethyl-6-(2-methylpyrimidin-5-yl)-1-(pyrimidin-5-yl)indolin-2-one] | 3890 |
| Cc1ccc(-c2ccc3c(c2)N(c2cn(C)cn2)C(=O)C3(C)C)cn1 [Example 10, 3,3-Dimethyl-1-(1-methyl-1H-imidazol-4-yl)-6-(6-methylpyridin-3-yl)indolin-2-one] | 5880 |
| Cc1cc(-c2ccc3c(c2)N(c2cn(C)cn2)C(=O)C3(C)C)ccn1 [Example 11, 3,3-Dimethyl-1-(1-methyl-1H-imidazol-4-yl)-6-(2-methylpyridin-4-yl)indolin-2-one] | 7030 |
| Cc1ccc(N2C(=O)C(C)(C)c3ccc(-c4cnc(C)nc4)cc32)cn1 [Example 12, 3,3-Dimethyl-1-(6-methylpyridin-3-yl)-6-(2-methylpyrimidin-5-yl)indolin-2-one] | 148 |
| Cc1ccc(-c2ccc3c(c2)N(c2ccn(C)n2)C(=O)C3(C)C)cn1 [Example 13, 3,3-Dimethyl-1-(1-methyl-1H-pyrazol-3-yl)-6-(6-methylpyridin-3-yl)indolin-2-one] | 1150 |
| Cc1ccc(-c2ccc3c(c2)N(c2ccnc(C)c2)C(=O)C3(C)C)cn1 [Example 19, 3,3-Dimethyl-6-(6-methylpyridin-3-yl)-1-(2-methylpyridin-4-yl)indolin-2-one] | 3450 |
| Cc1cc(-c2ccc3c(c2)N(c2ccnc(C)c2)C(=O)C3(C)C)ccn1 [Example 20, 3,3-Dimethyl-1,6-bis(2-methylpyridin-4-yl)indolin-2-one] | 5670 |
| Cc1cc(N2C(=O)C(C)(C)c3ccc(-n4cnc(C5CC5)c4)cc32)ccn1 [Example 21, 6-(4-Cyclopropylimidazol-1-yl)-3,3-dimethyl-1-(2-methyl-4-pyridyl)indolin-2-one] | 4020 |
| Cc1cc(N2C(=O)C(C)(C)c3ccc(-c4cnccc4F)cc32)ccn1 [Example 24, 6-(4-Fluoropyridin-3-yl)-3,3-dimethyl-1-(2-methylpyridin-4-yl)indolin-2-one] | 8790 |

| Compound | IC50 [nM] |
| --- | --- |
| Cc1ncc(-c2ccc3c(c2)N(c2ccc(C)s2)C(=O)C3(C)C)cn1 [Example 27, 3,3-Dimethyl-6-(2-methylpyrimidin-5-yl)-1-(5-methylthiophen-2-yl)indolin-2-one] | 355 |
| Cc1ncc(-c2ccc3c(c2)N(c2ccc(C#N)nc2)C(=O)C3(C)C)cn1 [Example 30, 5-(3,3-Dimethyl-6-(2-methylpyrimidin-5-yl)-2-oxoindolin-1-yl)picolinonitrile] | 2140 |
| Cc1ncc(-c2ccc3c(c2)N(c2ccc(CO)nc2)C(=O)C3(C)C)cn1 [Example 31, 1-(6-(Hydroxymethyl)pyridin-3-yl)-3,3-dimethyl-6-(2-methylpyrimidin-5-yl)indolin-2-one] | 168 |
| Cc1ncc(-c2ccc3c(c2)N(c2ccc(C4CC4)nc2)C(=O)C3(C)C)cn1 [Example 32, 1-(6-Cyclopropylpyridin-3-yl)-3,3-dimethyl-6-(2-methylpyrimidin-5-yl)indolin-2-one] | 59 |
| Cc1ccc(N2C(=O)C(C)(C)c3ccc(-n4cnc(C(C)C)c4)cc32)cn1 [Example 33, 6-(4-Isopropylimidazol-1-yl)-3,3-dimethyl-1-(6-methyl-3-pyridyl)indolin-2-one] | 1220 |
| Cc1cc(N2C(=O)C(C)(C)c3ccc(-n4cnc(C(C)C)c4)cc32)ccn1 [Example 36, 6-(4-Isopropylimidazol-1-yl)-3,3-dimethyl-1-(2-methyl-4-pyridyl)indolin-2-one] | 2460 |
| Cc1ncc(N2C(=O)C(C)(C)c3ccc(-n4cnc(C(C)C)c4)cc32)cn1 [Example 38, 6-(4-Isopropylimidazol-1-yl)-3,3-dimethyl-1-(2-methylpyrimidin-5-yl)indolin-2-one] | 426 |
| Cc1ncc(-c2ccc3c(c2)N(c2ccccn2)C(=O)C3(C)C)cn1 [Example 44, 3,3-Dimethyl-6-(2-methylpyrimidin-5-yl)-1-(pyridin-2-yl)indolin-2-one] | 1400 |
| Cc1ncc(-c2ccc3c(c2)N(c2ccncc2F)C(=O)C3(C)C)cn1 [Example 46, 1-(3-Fluoropyridin-4-yl)-3,3-dimethyl-6-(2-methylpyrimidin-5-yl)indolin-2-one] | 3530 |
| Cc1ncc(-c2ccc3c(c2)N(c2cc(F)ncc2C)C(=O)C3(C)C)cn1 [Example 47, 1-(2-Fluoro-5-methylpyridin-4-yl)-3,3-dimethyl-6-(2-methylpyrimidin-5-yl)indolin-2-one] | 7190 |
| Cc1ncc(-c2ccc3c(c2)N(c2nnc(C)o2)C(=O)C3(C)C)cn1 [Example 51, 3,3-Dimethyl-1-(5-methyl-1,3,4-oxadiazol-2-yl)-6-(2-methylpyrimidin-5-yl)indolin-2-one] | 1850 |
| Cc1ncc(-c2ccc3c(c2)N(c2ccncc2Cl)C(=O)C3(C)C)cn1 [Example 52, 1-(3-Chloropyridin-4-yl)-3,3-dimethyl-6-(2-methylpyrimidin-5-yl)indolin-2-one] | 6960 |
| Cc1ncc(-c2ccc3c(c2)N(c2cc[nH]n2)C(=O)C3(C)C)cn1 [Example 55, 3,3-Dimethyl-6-(2-methylpyrimidin-5-yl)-1-(1H-pyrazol-3-yl)indolin-2-one] | 2410 |
| Cc1ccc(N2C(=O)C(C)(C)c3ccc(-c4cnc(C)nc4)cc32)nc1 [Example 56, 3,3-Dimethyl-1-(5-methylpyridin-2-yl)-6-(2-methylpyrimidin-5-yl)indolin-2-one] | 316 |
| Cc1cnc(N2C(=O)C(C)(C)c3ccc(-c4cnc(C)nc4)cc32)cn1 [Example 57, 3,3-Dimethyl-1-(5-methylpyrazin-2-yl)-6-(2-methylpyrimidin-5-yl)indolin-2-one] | 27 |
